Assay results reported in the METLIN SMRT retention time set (Domingo-Almenara et al. 2019).

Assay: gradient 5% acetonitrile 3 min, to 50% in 2 min, to 85% in 15 min, held 3 min, 100 µL/min
Conditions: column: Zorbax Extend-C18 2.1 x 50 mm; eluents: water / acetonitrile, 0.1% formic acid
In short: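 Pure standards were analyzed in mixtures of ~100 molecules using HPLC coupled to a quadrupole time-of-flight mass spectrometer, in both positive and negative ionization mode. Separation used a Zorbax Extend-C18 column (2.1 × 50 mm, 1.8 μm) at 100 μL/min, with water and acetonitrile each containing 0.1% formic acid. Dead and dwell volumes were 40 μL and 900 μL, and data were collected over 3 months. Retention time was read from computationally picked adduct peaks, each inspected manually.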

SMILES	RP-LC retention time
Cc1ccc(C(=O)N2CCc3[nH]cnc3C23CCCCC3)s1	606 s
CCn1c(C2CCN(S(=O)(=O)c3ccc4c(c3)CCCC4)C2)nc2ccncc21 (stereo not given)	585 s
CC1CCN(C(=O)C2CC(=O)N(c3ccccc3)C2)CC1 (stereo not given)	764 s
CCC(C)NC(=O)c1ccc(-c2ccc(N3CCSCC3)nc2)cc1 (stereo not given)	711 s
Cc1nc([C@H]2CCN(Cc3ccc4[nH]ccc4c3)C[C@H]2N(C)C)n[nH]1	520 s
COc1ccc(C2(C(=O)N3CCC([C@H]4[C@@H](OC)C(=O)N4C(C)C)CC3)CC2)cc1	776 s
COc1ccc(CN2CCN(C(=O)CCc3c(C)noc3C)CC2)cn1	646 s
CN(C)C(=O)c1ccc2oc(CN3CCN(C(=O)NCc4ccco4)CC3)nc2c1	582 s
CCN1C(=O)c2cc(C(=O)Nc3ccc(C)c(C)c3)nn2CC1(C)C(=O)NC1CCCC1 (stereo not given)	884 s
CC1=C(C(=O)NCCN2CCOCC2)C2(CCN(Cc3ccccc3)CC2)OC1=O	634 s
COc1ccc(C(=O)N(C2CCCC2)C2(C(=O)NCc3ccccc3)CCN(C(C)=O)CC2)cc1	885 s
CCn1c(C)c(-c2nc(C3CC3)no2)c(S(=O)(=O)NC2CCCC2)c1C	1060 s
Cc1cc(C2CCCN2C(=O)Cc2cccc(Cl)c2)no1 (stereo not given)	816 s
O=C(CN1CC=C(c2cnn(-c3ccccc3)c2)CC1)N1CCN(Cc2ccc3c(c2)OCO3)CC1	591 s
CCNC(=O)N1CC(C)Oc2ccccc21 (stereo not given)	762 s
COc1ccc(CCN2C(=O)CC(Nc3ccc(N4CCOCC4)cc3)C2=O)cc1OC (stereo not given)	583 s
O=C(NCc1ccccn1)C1CCN(C(=O)c2ncn3c2COC(c2ccccc2)C3)CC1 (stereo not given)	602 s
C[C@@H](NC(=O)c1ccccc1Br)C(=O)NCc1cscn1	635 s
O=S(=O)(c1ccc2c(c1)-c1oncc1CO2)N1CCCc2ccccc21	1020 s
CCOc1cc(C(=O)Nc2nc(-c3ccc4c(c3)N(C)C(=O)CO4)cs2)cc(OCC)c1OCC	1140 s
O=C(C1CCCC1)N1CC(c2nc(-c3ccccc3)no2)C2(CCOCC2)C1 (stereo not given)	923 s
COCCN1CCC(N2CCN(S(=O)(=O)c3ccc(C(F)(F)F)cc3)CC2)C1=O (stereo not given)	625 s
CCS(=O)(=O)NCc1ccc2c(c1)CCN2C(=O)c1ccc(Cl)cc1	829 s
CC1=C(C(=O)N2CCOCC2)C(c2cc(Br)ccc2F)C2=C(CC(C)(C)CC2=O)N1 (stereo not given)	715 s
Cc1ccc(-c2ccc(N3CCCC(C(=O)NCCCN4CCOCC4)C3)nn2)cc1 (stereo not given)	571 s
CC(C)NCc1ccc(-c2ccccc2)o1	612 s
Cc1cc(C)cc(NC(=O)NCC2CCOCC2)c1	752 s

More lines, now with the values ahead:

RP-LC retention time	SMILES
898 s	Cc1nc(-c2csc(S(=O)(=O)N3CCC(C(=O)N(C)Cc4ccccc4)CC3)c2)no1
639 s	CCN(CCNC(=O)CCc1cc2ccc(C)cc2[nH]c1=O)Cc1ccccc1
837 s	O=C(NC1CC1)c1ccc(OCC2CCN(C(=O)c3ccc(F)cc3Cl)CC2)cc1
845 s	CCc1ccc(CNC(=O)C2CCCN(C(=O)c3[nH]c(C)c(C(=O)OC)c3C)C2)cc1 (stereo not given)
848 s	COc1ccc(C(=O)N2CCCC2c2nc(-c3ccc(OC)c(OC)c3)no2)cc1 (stereo not given)
727 s	O=C(Cn1cccc(-c2nc(-c3ccc(F)cc3)no2)c1=O)N1CCCC1
891 s	N#Cc1ccc(C(=O)Nc2cnc(N3CCCCCC3)nc2)cc1
610 s	CC(C)n1c(CN2CCCC2)nc2cc(NC(=O)c3ccco3)ccc21
747 s	CCc1cc(=O)n(CC(=O)NCc2ccc(C)cc2)c(N2CCOCC2)n1
1040 s	Cc1cccc(-c2noc(-c3nn(CC(=O)NCC4CCCO4)c4ccccc34)n2)c1 (stereo not given)
860 s	Cn1nc(-c2nc(C3CC3)no2)c2c1CCN(C(=O)c1cc(F)ccc1F)C2
1040 s	COc1ccc(N2CC(c3nc(-c4ccc(Br)cc4)no3)CC2=O)c(OC)c1 (stereo not given)
830 s	Cc1ccc(CNC(=O)c2ccc3c(=O)n(-c4ccccc4)c(N4CCCC4)nc3c2)o1
888 s	Cc1nnc(-c2cn(CC(=O)Nc3ccc(Br)cc3)c3ccccc23)o1
787 s	CS(=O)(=O)N1CCC(OC2CCN(C(=O)Nc3cccc(Cl)c3F)CC2)CC1
1050 s	Cc1cc(C)c(S(=O)(=O)N2CCC(C(=O)NCc3csc(-c4ccccc4)n3)CC2)cc1C
1190 s	CCn1c(=O)oc2cc(-c3noc(-c4ccc(F)cc4Cl)n3)ccc21
880 s	Cc1ccc(C)c(NC(=O)Cn2c(=O)nc(N3CCC(C)CC3)c3ccccc32)c1
675 s	COc1ccc(C(CNC(=O)c2cc(=O)c3cc(C)cc(C)c3o2)N(C)C)cc1 (stereo not given)

RP-LC retention time	SMILES
876 s	Cn1cc(C(=O)NCc2ccc(F)c(Cl)c2)c(S(=O)(=O)N2CCCCC2)n1
753 s	Cc1c(Cl)cccc1NC(=O)Nc1cccc(-c2ccc(N3CCOCC3)nn2)c1
753 s	CSc1cccc(NC(=O)Cc2nnc(-c3ccc4ncccc4c3)o2)c1
868 s	O=C(Cn1nc2c3sc(N4CCCCC4)nc3ncn2c1=O)Nc1ccc(Cl)cc1F
1270 s	Cc1nn(-c2nc(-c3ccccc3)cs2)c(C)c1CC(=O)Nc1cccc(C(F)(F)F)c1
710 s	COc1cc(Nc2nc(C(=O)N3CCOCC3)cc3occc23)cc(OC)c1OC
781 s	Cc1csc(-c2ccc(N3CCN(C(=O)c4cccs4)CC3)nc2)n1
750 s	CCCc1nc(NC(C)c2ccc(OC)c(OC)c2)ncc1C(=O)O (stereo not given)
748 s	O=C(Nc1nnc(C2CC(=O)N(c3ccc(Cl)cc3)C2)o1)c1ccccc1F (stereo not given)
879 s	Cc1ccc(-c2cn3c(CC(=O)N4CCc5ccccc5C4)csc3n2)cc1C
860 s	CC(=O)Nc1ccc(OCc2cc(C(=O)NC3CCC(C)CC3)no2)cc1 (stereo not given)
987 s	Cn1nc(-c2nnc(-c3ccc(F)cc3)o2)c2c1CCN(S(=O)(=O)c1cccc(Cl)c1)C2
813 s	CCOC(=O)c1c(C)[nH]c(C(=O)N2CCC(CC(=O)NCc3ccccc3Cl)CC2)c1C
658 s	COc1cccc(CNC(=O)N2CCN(c3cnn4c(C)nnc4c3)CC2)c1
659 s	COc1ccc(CC(=O)NC2CCN(c3cc(-c4ccccc4)[nH]n3)C2)cc1OC (stereo not given)
1020 s	Cc1cccc(Nc2c(-c3cc(Br)ccc3O)nc3ncccn23)c1
704 s	COC(=O)c1cnc2nc(C)ccc2c1Nc1cccc(Cl)c1F
810 s	CCN1C(=O)c2cccnc2Sc2cc(C(=O)NCc3cccc(F)c3)ccc21
665 s	COc1cccc(CNC(=O)C2CCc3nc(N4CCCCC4)ncc3C2)c1 (stereo not given)
